According to patent US11524932B2, “Lipids for use in lipid nanoparticle formulations” (ACUITAS THERAPEUTICS, INC., priority 2017, dated 2022):

Columns and labels:
[1] = Determination of pKa of formulated lipids (TNS fluorescence assay in lipid nanoparticles); format: physicochemical; conditions: lipid formulated in LNP (lipid/DSPC/cholesterol/PEG-lipid); pH giving half-maximal TNS fluorescence
Description: As described elsewhere, the pKa of formulated lipids is correlated with the effectiveness of LNPs for delivery of nucleic acids (see Jayaraman et al, Angewandte Chemie, International Edition (2012), 51(34), 8529-8533; Semple et al, Nature Biotechnology 28, 172-176 (2010)). In some embodiments, the preferred range of pKa is ˜5 to ˜7. […] Lipid nanoparticles comprising compound of structure (I)/DSPC/cholesterol/PEG-lipid (50/10/38.5/1.5 or 47.5:10:40.8:1.7 mol %) in PBS at a concentration of 0.4 mM total lipid were prepared using the in-line process as described in Example 1. TNS was prepared as a 100 μM stock solution in distilled water. Vesicles were diluted to 24 μM lipid in 2 mL of buffered solutions containing 10 mM HEPES, 10 mM MES, 10 mM ammonium acetate, and 130 mM NaCl, where the pH ranged from 2.5 to 11. An aliquot of the TNS solution was added to give a final concentration of 1 μM and following vortex mixing fluorescence intensity was measured at room temperature in a SLM Aminco Series 2 Luminescence Spectrophotometer using excitation and emission wavelengths of 321 nm and 445 nm. A sigmoidal best fit analysis was applied to the fluorescence data and the pKa was measured as the pH giving rise to half-maximal fluorescence intensity.

[2] = tested on: luciferase expression in the liver; assay: Luciferase mRNA in vivo evaluation using lipid nanoparticle compositions (liver luciferase expression); set-up: species or system mice; conditions: LNP with FLuc mRNA, tail vein injection, liver measured 4 hours after administration; for Liver Luc @ 0.5 mg/kg (ng luc/g liver): 0.5 mg mRNA/kg
Method: A lipid of structure (I), DSPC, cholesterol and PEG-lipid were solubilized in ethanol at a molar ratio of 50:10:38.5:1.5 or 47.5:10:40.8:1.7. Lipid nanoparticles (LNP) were prepared at a total lipid to mRNA weight ratio of approximately 10:1 to 30:1. Briefly, the mRNA was diluted to 0.2 mg/mL in 10 to 50 mM citrate buffer, pH 4. Syringe pumps were used to mix the ethanolic lipid solution with the mRNA aqueous solution at a ratio of about 1:5 to 1:3 (vol/vol) with total flow rates above 15 mL/min. The ethanol was then removed and the external buffer replaced with PBS by dialysis. Finally, the lipid nanoparticles were filtered through a 0.2 μm pore sterile filter.
Studies were performed in 6-8 week old female C57BL/6 mice (Charles River) 8-10 week old CD-1 (Harlan) mice (Charles River) according to guidelines established by an institutional animal care committee (ACC) and the Canadian Council on Animal Care (CCAC). Varying doses of mRNA-lipid nanoparticle were systemically administered by tail vein injection and animals euthanized at a specific time point (e.g., 4 hours) post-administration. Liver and spleen were collected in pre-weighed tubes, weights determined, immediately snap frozen in liquid nitrogen and stored at −80° C. until processing for analysis.
For liver, approximately 50 mg was dissected for analyses in a 2 mL FastPrep tubes (MP Biomedicals, Solon Ohio). ¼″ ceramic sphere (MP Biomedicals) was added to each tube and 500 μL of Glo Lysis Buffer—GLB (Promega, Madison Wis.) equilibrated to room temperature was added to liver tissue. Liver tissues were homogenized with the FastPrep24 instrument (MP Biomedicals) at 2×6.0 m/s for 15 seconds. Homogenate was incubated at room temperature for 5 minutes prior to a 1:4 dilution in GLB and assessed using SteadyGlo Luciferase assay system (Promega). Specifically, 50 μL of diluted tissue homogenate was reacted with 50 μL of SteadyGlo substrate, shaken for 10 seconds followed by 5 minute incubation and then quantitated using a CentroXS^3 LB 960 luminometer (Berthold Technologies, Germany). The amount of protein assayed was determined by using the BCA protein assay kit (Pierce, Rockford, Ill.). Relative luminescence units (RLU) were then normalized to total μg protein assayed. To convert RLU to ng luciferase a standard curve was generated with QuantiLum Recombinant Luciferase (Promega). […]
Compounds of structure (I) were formulated using the following molar ratio: 47.5% cationic lipid/10% distearoylphosphatidylcholine (DSPC)/40.8% Cholesterol/1.7% PEG lipid (“PEG-DMA” 2-[2-(ω-methoxy (polyethyleneglycol2000)ethoxy]-N,N-ditetradecylacetamide). Relative activity was determined by measuring luciferase expression in the liver 4 hours following administration via tail vein injection as described in Example 1. […]

Row | pKa [1] | SMILES | Liver Luc @ 0.5 mg/kg (ng luc/g liver) [2] [ng luc/g liver] | Liver Luc (ng luc/g liver), dosed at 0.3 mg/kg ([2]; footnote *: dosed at 0.3 mg/kg)
1 | 6.11 | CCCCCCCCC(CCCCCC)COC(=O)CCCCCC(CCCCCC(=O)OCC(CCCCCC)CCCCCCCC)NCCCCCC(=O)OCC(CC)CCCC (centres unmarked) [Compound 4] | 102 ± 42 | –
2 | 5.76 | CCCCCCCCC(CCCCCC)COC(=O)CCCCCC(CCCCCC(=O)OCC(CCCCCC)CCCCCCCC)NCCCCCC(=O)OCC(CCCC)CCCCCC (centres unmarked) [Compound 2] | 29 ± 4 | –
3 | 6.5 | CCCCCCCCC(CCCCCC)COC(=O)CCCCCNCCN(CCCCCC(=O)OCC(CCCCCC)CCCCCCCC)CCCCCC(=O)OCC(CCCCCC)CCCCCCCC (centres unmarked) [Compound 3] | 33 ± 1 | –
4 | 6.39 | CCCCCCCCC(CCCCCC)COC(=O)CCCCCN(CCCCCC(=O)OCC(CCCCCC)CCCCCCCC)CCNCCCCCC(=O)OCC(CCCC)CCCCCC (centres unmarked) [Compound 1] | – | 1235 ± 345* ng luc/g liver
